The values that follow come from article PMC8445441, “Elucidating the mechanism by which synthetic helper peptides sensitize Pseudomonas aeruginosa to multiple antibiotics” (PLoS Pathogens, 2021).

Several values for one entry are separate records, joined by “and”; a condition that tells them apart may be missing. Equal values may be shown once. Read-outs that look alike come from different tables or passages of the source.

Test [1] has as its system P. aeruginosa PAO1. Briefly: microbe, parasite or virus in culture. The following applies: for MIC: Pseudomonas aeruginosa, PAO1, 18 h. The procedure: (§1) The MIC tests were performed in triplicate using broth microdilution in accordance with Clinical and Laboratory Standards Institute (CLSI) recommendations (http://iacld.ir/DL/public/CLSI-2018-M100-S28.pdf). Briefly, drugs were two-fold diluted in MHB and mixed with an equal volume of bacterial suspensions containing approximately 1 × 10^6 CFU/mL in 96-well microliter plate. After 18 h incubation at 37 °C, the MIC values were defined as the lowest concentrations of antibiotics with no visible growth of bacteria. […] Otherwise, 1/4 MIC of the peptide was used in the combination. […] If needed, membrane compounds PG, PE, PC, CL or LPS, or membrane stabilizers MgCl2 or CaCl2, or efflux pumps inhibitor PAβN were added to the broth medium to clarify the effect of other substances on the synergy between peptide and antibiotics. All the tests were performed in triplicate.
The fractional inhibitory concentration (FIC) indices were calculated using the previously described formula FICI = FICa + FICb = MICac/MICa + MICbc/MICb. The FICI was interpreted according to EUCAST [65] as follows: synergistic, FICI≤0.5; additive, 0.5<FICI≤1; indifferent, 1<FICI<2; antagonistic, FICI ≥2. For the FICI calculations, twice the highest concentration tested was used in the cases where the MIC was not reached.

Test [2] concerns clinical P. aeruginosa isolates. Briefly: microbe, parasite or virus in culture. The following applies: for MIC: Pseudomonas aeruginosa, 18 h. The procedure: The bacterial strains, primers and plasmids used in this study are listed in S5 Table. […] Bacteria were cultured in LB medium or cation-adjusted Muller-Hinton broth (CA-MHB) at 37 °C with agitation at 220 rpm. All the antibiotics and chemical compounds used in this study were purchased from Sigma-Aldrich.
as §1

Where [3] appears, read: S3 Table, PAO1, antibiotic + 2 μM D-11.
The mark [4] stands for this setting: S3 Table, PAO1, antibiotic + 4 μM D-11.
The mark [5] stands for this setting: S3 Table, antibiotic alone, PAO1.
Where [6] appears, read: read-out: Antibiotic sensibility (MIC) of clinical P. aeruginosa isolate AUMC-Pa-1, strain AUMC-Pa-1, antibiotic alone.
[7] abbreviates: read-out: Antibiotic sensibility (MIC) of clinical P. aeruginosa isolate AUMC-Pa-2, strain AUMC-Pa-2, antibiotic alone.
Where [8] appears, read: read-out: Antibiotic sensibility (MIC) of clinical P. aeruginosa isolate AUMC-Pa-3, strain AUMC-Pa-3, antibiotic alone.
Setting [9] is: read-out: Antibiotic sensibility (MIC) of clinical P. aeruginosa isolate AUMC-Pa-4, strain AUMC-Pa-4, antibiotic alone.
The mark [10] stands for this setting: read-out: Antibiotic sensibility (MIC) of clinical P. aeruginosa isolate AUMC-Pa-5, strain AUMC-Pa-5, antibiotic alone.
Setting [11] is: read-out: Antibiotic sensibility (MIC) of clinical P. aeruginosa isolate AUMC-Pa-6, strain AUMC-Pa-6, antibiotic alone.
Setting [12] is: read-out: Antibiotic sensibility (MIC) of clinical P. aeruginosa isolate HM-214, strain HM-214, antibiotic alone.
Where [13] appears, read: read-out: Antibiotic sensibility (MIC) of clinical P. aeruginosa isolate NR-31040, strain NR-31040, antibiotic alone.
Where [14] appears, read: read-out: Antibiotic sensibility (MIC) of clinical P. aeruginosa isolate NR-31041, strain NR-31041, antibiotic alone.
Setting [15] is: read-out: MICa: the MIC of antibiotics, S3 Table, antibiotic alone, PAO1.

Regarding `[H]/N=C(/N)N[C@H]1[C@H](O)[C@@H](O)[C@H](O[C@@H]2O[C@@H](C)[C@](O)(C=O)[C@H]2O[C@@H]2O[C@@H](CO)[C@H](O)[C@@H](O)[C@@H]2NC)[C@@H](N/C(N)=N\[H])[C@@H]1O` [Streptomycin], the FICI is 1.063 in test [1] (setting [3]) and 1.125 in test [1] (setting [4]). The “MICac: the MIC for the antibiotic in the combination” value (from here on “MICac: the MIC for the antibiotic”) in test [1] (S3 Table, PAO1, with 2 μM D-11) is 64/64 μM; in test [1] (S3 Table, PAO1, with 4 μM D-11), 64/64 μM. In test [1] (setting [5]), the “MICa: the MIC of antibiotics” value is given as 64/64 μM. For the same compound, the MIC is 16 µM in test [2] (setting [6]); 8 µM in test [2] (setting [7]); 128 µM in test [2] (setting [8]); 8 µM in test [2] (setting [9]); 8 µM in test [2] (setting [10]); 16 µM in test [2] (setting [11]). The MIC was 128 µM in test [2] (setting [12]), above 128 µM in test [2] (setting [13]) and above 128 µM in test [2] (setting [14]).
In the case of `CN(C)C(=O)C(CCN1CCC(O)(c2ccc(Cl)cc2)CC1)(c1ccccc1)c1ccccc1` [Loperamide], the FICI in test [1] is 1.063 and 1.125. Moreover, the “MICac: the MIC for the antibiotic” value in test [1] is reported as >128/>128 μM. The MIC in test [1] (read-out: MICa: the MIC of antibiotics), in test [2] (read-out: Antibiotic sensibility (MIC) of clinical P. aeruginosa isolate AUMC-Pa-1), in test [2] (read-out: Antibiotic sensibility (MIC) of clinical P. aeruginosa isolate AUMC-Pa-2), in test [2] (read-out: Antibiotic sensibility (MIC) of clinical P. aeruginosa isolate AUMC-Pa-3), in test [2] (read-out: Antibiotic sensibility (MIC) of clinical P. aeruginosa isolate AUMC-Pa-4) and in test [2] (read-out: Antibiotic sensibility (MIC) of clinical P. aeruginosa isolate AUMC-Pa-5) was above 128 µM each time. The MIC in test [2] (read-out: Antibiotic sensibility (MIC) of clinical P. aeruginosa isolate AUMC-Pa-6), in test [2] (read-out: Antibiotic sensibility (MIC) of clinical P. aeruginosa isolate HM-214), in test [2] (read-out: Antibiotic sensibility (MIC) of clinical P. aeruginosa isolate NR-31040) and in test [2] (read-out: Antibiotic sensibility (MIC) of clinical P. aeruginosa isolate NR-31041) was above 128 µM each time.
`CC(=O)NC[C@H]1CN(c2ccc(N3CCOCC3)c(F)c2)C(=O)O1` [Linezolid]: the MIC in test [1] (setting [15]), in test [2] (setting [6]), in test [2] (setting [7]), in test [2] (setting [8]), in test [2] (setting [9]) and in test [2] (setting [10]) was above 128 µM throughout. In addition, the MIC in test [2] (setting [11]), in test [2] (setting [12]), in test [2] (setting [13]) and in test [2] (setting [14]) was above 128 µM in each case. For the same compound, the values for the FICI in test [1] (setting [3]) and in test [1] (setting [4]) were 1.063 and 1.125, respectively. The “MICac: the MIC for the antibiotic” value in test [1] (S3 Table, PAO1, with 2 μM D-11) is >128/>128 μM; in test [1] (S3 Table, PAO1, with 4 μM D-11) it was >128/>128 μM.
Consider `CO/N=C(\C(=O)N[C@@H]1C(=O)N2C(C(=O)[O-])=C(C[N+]3(C)CCCC3)CS[C@H]12)c1csc(N)n1` [Cefepime], for which the FICI in test [1] (setting [3]) worked out at 0.563; in test [1] (setting [4]), 0.625. Also, the “MICac: the MIC for the antibiotic” value was 1 µM in test [1] (S3 Table, PAO1, with 2 μM D-11) and 1 µM in test [1] (S3 Table, PAO1, with 4 μM D-11). The “MICa: the MIC of antibiotics” value in test [1] (setting [5]) worked out at 2 µM. For the same compound, the MIC worked out at 8 µM in test [2] (setting [6]); 0.5 µM in test [2] (setting [7]); 2 µM in test [2] (setting [8]); 2 µM in test [2] (setting [9]); 4 µM in test [2] (setting [10]); 4 µM in test [2] (setting [11]). Also, the results for the MIC in test [2] (setting [12]), in test [2] (setting [13]) and in test [2] (setting [14]) were 128 µM, 4 µM and 16 µM, respectively.
Take Neomycin: the FICI in test [1] (setting [4]) was found to be 2.125. In addition, the “MICac: the MIC for the antibiotic” value in test [1] (S3 Table, PAO1, with 2 μM D-11) was 2/2 μM; in test [1] (S3 Table, PAO1, with 4 μM D-11) it was 4 µM. Also, the “MICa: the MIC of antibiotics” value in test [1] (setting [5]) was 2/2 μM and 2 μM. The “Antibiotic sensibility (MIC) of clinical P. aeruginosa isolate AUMC-Pa-1” value in test [2] (strain AUMC-Pa-1, antibiotic alone) is 1 µM. For the same compound, the “Antibiotic sensibility (MIC) of clinical P. aeruginosa isolate AUMC-Pa-2” value in test [2] (strain AUMC-Pa-2, antibiotic alone) was found to be 0.5 µM. Further, the “Antibiotic sensibility (MIC) of clinical P. aeruginosa isolate AUMC-Pa-3” value in test [2] (strain AUMC-Pa-3, antibiotic alone) turned out to be 0.0625 µM. The “Antibiotic sensibility (MIC) of clinical P. aeruginosa isolate AUMC-Pa-4” value in test [2] (strain AUMC-Pa-4, antibiotic alone) was determined as 0.5 µM. For the same compound, the “Antibiotic sensibility (MIC) of clinical P. aeruginosa isolate AUMC-Pa-5” value in test [2] (strain AUMC-Pa-5, antibiotic alone) stood at 0.5 µM. In addition, the “Antibiotic sensibility (MIC) of clinical P. aeruginosa isolate AUMC-Pa-6” value in test [2] (strain AUMC-Pa-6, antibiotic alone) is 2 µM. For the same compound, the “Antibiotic sensibility (MIC) of clinical P. aeruginosa isolate HM-214” value in test [2] (strain HM-214, antibiotic alone) was determined as 2 µM. The “Antibiotic sensibility (MIC) of clinical P. aeruginosa isolate NR-31040” value in test [2] (strain NR-31040, antibiotic alone) was 8 µM. Further, the “Antibiotic sensibility (MIC) of clinical P. aeruginosa isolate NR-31041” value in test [2] (strain NR-31041, antibiotic alone) turned out to be 4 µM.
Consider `CC1(C)S[C@@H]2[C@H](NC(=O)[C@H](N)c3ccccc3)C(=O)N2[C@H]1C(=O)O` [Ampicillin], for which the MIC in test [1] (setting [15]), in test [2] (setting [6]), in test [2] (setting [7]), in test [2] (setting [8]), in test [2] (setting [9]) and in test [2] (setting [10]) was above 128 µM each time. Besides, the MIC in test [2] (setting [11]), in test [2] (setting [12]), in test [2] (setting [13]) and in test [2] (setting [14]) was above 128 µM each time. In addition, the FICI in test [1] (setting [4]) is reported as 1.125. The “MICac: the MIC for the antibiotic” value in test [1] (S3 Table, PAO1, with 2 μM D-11) is given as >128/>128 μM; in test [1] (S3 Table, PAO1, with 4 μM D-11), >128/>128 μM.
As to `CC1(C)S[C@@H]2[C@H](NC(=O)[C@H](N)c3ccc(O)cc3)C(=O)N2[C@H]1C(=O)O` [Amoxicin, Amoxicillin], the MIC in test [1] (setting [15]), in test [2] (setting [6]), in test [2] (setting [7]), in test [2] (setting [8]), in test [2] (setting [9]) and in test [2] (setting [10]) was above 128 µM in each case. For the same compound, the MIC in test [2] (setting [11]), in test [2] (setting [12]), in test [2] (setting [13]) and in test [2] (setting [14]) was above 128 µM throughout. The FICI in test [1] (setting [4]) was found to be 1.125. Also, the “MICac: the MIC for the antibiotic” value in test [1] (S3 Table, PAO1, with 2 μM D-11) is >128/>128 μM; in test [1] (S3 Table, PAO1, with 4 μM D-11) it was >128/>128 μM.
Regarding `CC[C@H](C)[C@H](NC(=O)[C@H](CCCCN)NC(=O)[C@H](CCC(=O)O)NC(=O)[C@H](CCCCN)NC(=O)[C@H](CO)NC(=O)[C@H](CCCCN)NC(=O)[C@H](CCCNC(=N)N)NC(=O)[C@H](Cc1ccccc1)NC(=O)[C@H](Cc1ccccc1)NC(=O)[C@H](CC(=O)O)NC(=O)CNC(=O)[C@H](CC(C)C)NC(=O)[C@@H](N)CC(C)C)C(=O)NCC(=O)N[C@@H](CCCCN)C(=O)N[C@@H](CCC(=O)O)C(=O)N[C@@H](Cc1ccccc1)C(=O)N[C@@H](CCCCN)C(=O)N[C@@H](CCCNC(=N)N)C(=O)N[C@H](C(=O)N[C@H](C(=O)N[C@@H](CCC(N)=O)C(=O)N[C@@H](CCCNC(=N)N)C(=O)N[C@H](C(=O)N[C@@H](CCCCN)C(=O)N[C@@H](CC(=O)O)C(=O)N[C@@H](Cc1ccccc1)C(=O)N[C@@H](CC(C)C)C(=O)N[C@@H](CCCNC(=N)N)C(=O)N[C@@H](CC(N)=O)C(=O)N[C@@H](CC(C)C)C(=O)N[C@H](C(=O)N1CCC[C@H]1C(=O)N[C@@H](CCCNC(=N)N)C(=O)N[C@H](C(=O)N[C@@H](CCC(=O)O)C(=O)N[C@@H](CO)C(=O)O)[C@@H](C)O)C(C)C)[C@@H](C)CC)C(C)C)[C@@H](C)CC` [LL-37], in test [1] (PAO1, peptide + azithromycin, twice the highest concentration used where MIC not reached), the FICI is 0.75.
